# Test results as given in ChEMBL document CHEMBL3885881, “DrugMatrix”.
# Species on record: Rattus norvegicus
# Assay: DrugMatrix - Regimen: Daily Repeat
# Assay type: toxicity, organism-based, Sprague-Dawley
# Parameters: regimen Daily Repeat, gender Male, age 6-8 weeks
# Conditions: in vivo, iv, vehicle 100 % SALINE; for ABSOLUTE BASOPHIL / ABSOLUTE EOSINOPHIL / ABSOLUTE LYMPHOCYTE / ABSOLUTE MONOCYTE / ABSOLUTE SEGMENTED NEUTROPHIL / BASOPHIL / EOSINOPHIL / ERYTHROCYTE COUNT / HEMATOCRIT / HEMOGLOBIN / LEUKOCYTE COUNT / LYMPHOCYTE / MEAN CORPUSCULAR HEMOGLOBIN / MEAN CORPUSCULAR HEMOGLOBIN CONCENTRATION / MEAN CORPUSCULAR VOLUME / MONOCYTE / NEUTROPHIL / NUCLEATED RED BLOOD CELLS / PLATELET COUNT: tissue Blood
# [1] = 0 mg/kg, 72 h, dose level Control, time 3 day
# [2] = 0 mg/kg, 72 h, tissue Plasma, dose level Control, time 3 day
# [3] = 0 mg/kg, 120 h, dose level Control, time 5 day
# [4] = 0 mg/kg, 120 h, tissue Plasma, dose level Control, time 5 day
# [5] = […], 72 h, dose 0.56 mg/Kg, dose level High, time 3 day
# [6] = […], 72 h, tissue Plasma, dose 0.56 mg/Kg, dose level High, time 3 day
# [7] = […], 120 h, dose 0.56 mg/Kg, dose level High, time 5 day
# [8] = […], 120 h, tissue Plasma, dose 0.56 mg/Kg, dose level High, time 5 day
substance,measurement,setting,value
INSULIN HUMAN,ABSOLUTE BASOPHIL,[1],0 CELLS/uL
same,ABSOLUTE EOSINOPHIL,[1],46.17 CELLS/uL
same,ABSOLUTE LYMPHOCYTE,[1],9089 CELLS/uL
same,ABSOLUTE MONOCYTE,[1],242 CELLS/uL
same,ABSOLUTE SEGMENTED NEUTROPHIL,[1],856.17 CELLS/uL
same,BASOPHIL,[1],0%
same,EOSINOPHIL,[1],0.5%
same,ERYTHROCYTE COUNT,[1],5.1 x10E6/uL
same,HEMATOCRIT,[1],32.5%
same,HEMOGLOBIN,[1],12.35 G/DL
same,LEUKOCYTE COUNT,[1],10.23 x10E3/uL
same,LYMPHOCYTE,[1],88.5%
same,MEAN CORPUSCULAR HEMOGLOBIN,[1],24.18 pg
same,MEAN CORPUSCULAR HEMOGLOBIN CONCENTRATION,[1],38 G/DL
same,MEAN CORPUSCULAR VOLUME,[1],63.62 fL
same,MONOCYTE,[1],2.5%
same,NEUTROPHIL,[1],8.5%
same,NUCLEATED RED BLOOD CELLS,[1],0.17 /100WBC
same,PLATELET COUNT,[1],1038.67 x10E3/uL
same,ALANINE AMINOTRANSFERASE,[2],51.33 u/L
same,ALBUMIN,[2],3.9 G/DL
same,ALKALINE PHOSPHATASE,[2],409.33 u/L
same,ASPARTATE AMINOTRANSFERASE,[2],91.67 u/L
same,CHLORIDE,[2],97.83 MEQ/L
same,CHOLESTEROL,[2],79.33 mg/dL
same,CREATINE PHOSPHOKINASE,[2],628.67 u/L
same,CREATININE,[2],0.21 mg/dL
same,LACTATE DEHYDROGENASE,[2],120.33 u/L
same,PHOSPHORUS,[2],10.48 mg/dL
same,POTASSIUM,[2],5.83 MEQ/L
same,TOTAL BILIRUBIN,[2],0.2 mg/dL
same,TOTAL PROTEIN,[2],6.15 G/DL
same,URIC ACID,[2],0.45 mg/dL
same,ABSOLUTE BASOPHIL,[3],0 CELLS/uL
same,ABSOLUTE EOSINOPHIL,[3],12.17 CELLS/uL
same,ABSOLUTE LYMPHOCYTE,[3],10388 CELLS/uL
same,ABSOLUTE MONOCYTE,[3],140.17 CELLS/uL
same,ABSOLUTE SEGMENTED NEUTROPHIL,[3],1576.33 CELLS/uL
same,BASOPHIL,[3],0%
same,EOSINOPHIL,[3],0.17%
same,ERYTHROCYTE COUNT,[3],5.71 x10E6/uL
same,HEMATOCRIT,[3],35.57%
same,LEUKOCYTE COUNT,[3],12.12 x10E3/uL
same,LYMPHOCYTE,[3],85.83%
same,MEAN CORPUSCULAR HEMOGLOBIN,[3],23.53 pg
same,MEAN CORPUSCULAR HEMOGLOBIN CONCENTRATION,[3],37.73 G/DL
same,MONOCYTE,[3],1%
same,NEUTROPHIL,[3],13%
same,NUCLEATED RED BLOOD CELLS,[3],0.33 /100WBC
same,PLATELET COUNT,[3],1347.67 x10E3/uL
same,ALANINE AMINOTRANSFERASE,[4],47.83 u/L
same,ALKALINE PHOSPHATASE,[4],380 u/L
same,ASPARTATE AMINOTRANSFERASE,[4],81.17 u/L
same,BLOOD UREA NITROGEN,[4],14.67 mg/dL
same,CARBON DIOXIDE,[4],36.17 mmol/L
same,CHLORIDE,[4],98.17 MEQ/L
same,CHOLESTEROL,[4],69.33 mg/dL
same,CREATINE PHOSPHOKINASE,[4],547.17 u/L
same,CREATININE,[4],0.28 mg/dL
same,GLUCOSE,[4],140.5 mg/dL
same,LACTATE DEHYDROGENASE,[4],153.83 u/L
same,LIPASE,[4],7.83 u/L
same,POTASSIUM,[4],5.86 MEQ/L
same,TOTAL BILIRUBIN,[4],0.17 mg/dL
same,TOTAL PROTEIN,[4],6.33 G/DL
same,URIC ACID,[4],0.68 mg/dL
same,ABSOLUTE BASOPHIL,[5],0 CELLS/uL
same,ABSOLUTE EOSINOPHIL,[5],0 CELLS/uL
same,ABSOLUTE LYMPHOCYTE,[5],9557.33 CELLS/uL
same,ABSOLUTE MONOCYTE,[5],233.33 CELLS/uL
same,ABSOLUTE SEGMENTED NEUTROPHIL,[5],942.67 CELLS/uL
same,BASOPHIL,[5],0%
same,EOSINOPHIL,[5],0%
same,ERYTHROCYTE COUNT,[5],5.18 x10E6/uL
same,HEMATOCRIT,[5],33.13%
same,HEMOGLOBIN,[5],12.73 G/DL
same,LEUKOCYTE COUNT,[5],10.73 x10E3/uL
same,LYMPHOCYTE,[5],89.33%
same,MEAN CORPUSCULAR HEMOGLOBIN,[5],24.6 pg
same,MEAN CORPUSCULAR HEMOGLOBIN CONCENTRATION,[5],38.43 G/DL
same,MEAN CORPUSCULAR VOLUME,[5],64 fL
same,MONOCYTE,[5],2%
same,NUCLEATED RED BLOOD CELLS,[5],0.33 /100WBC
same,PLATELET COUNT,[5],1173.33 x10E3/uL
same,ALANINE AMINOTRANSFERASE,[6],50.67 u/L
same,ALBUMIN,[6],3.9 G/DL
same,ALKALINE PHOSPHATASE,[6],425.67 u/L
same,ASPARTATE AMINOTRANSFERASE,[6],87.67 u/L
same,BLOOD UREA NITROGEN,[6],16 mg/dL
same,CARBON DIOXIDE,[6],29.33 mmol/L
same,CHLORIDE,[6],98 MEQ/L
same,CHOLESTEROL,[6],73.33 mg/dL
same,CREATINE PHOSPHOKINASE,[6],247.67 u/L
same,CREATININE,[6],0.2 mg/dL
same,GLUCOSE,[6],158.67 mg/dL
same,LACTATE DEHYDROGENASE,[6],90.33 u/L
same,LIPASE,[6],12 u/L
same,POTASSIUM,[6],5.04 MEQ/L
same,SODIUM,[6],140.73 MEQ/L
same,TOTAL BILIRUBIN,[6],0.17 mg/dL
same,TOTAL PROTEIN,[6],6.1 G/DL
same,URIC ACID,[6],0.33 mg/dL
same,ABSOLUTE BASOPHIL,[7],0 CELLS/uL
same,ABSOLUTE EOSINOPHIL,[7],0 CELLS/uL
same,ABSOLUTE LYMPHOCYTE,[7],9972 CELLS/uL
same,ABSOLUTE MONOCYTE,[7],151.33 CELLS/uL
same,ABSOLUTE SEGMENTED NEUTROPHIL,[7],1610 CELLS/uL
same,BASOPHIL,[7],0%
same,EOSINOPHIL,[7],0%
same,ERYTHROCYTE COUNT,[7],5.32 x10E6/uL
same,HEMATOCRIT,[7],33.67%
same,LEUKOCYTE COUNT,[7],11.73 x10E3/uL
same,LYMPHOCYTE,[7],85%
same,MEAN CORPUSCULAR HEMOGLOBIN,[7],24.17 pg
same,MEAN CORPUSCULAR HEMOGLOBIN CONCENTRATION,[7],38.23 G/DL
same,NEUTROPHIL,[7],13.67%
same,NUCLEATED RED BLOOD CELLS,[7],0.33 /100WBC
same,PLATELET COUNT,[7],1293.67 x10E3/uL
same,ALANINE AMINOTRANSFERASE,[8],53.33 u/L
same,ALKALINE PHOSPHATASE,[8],426 u/L
same,ASPARTATE AMINOTRANSFERASE,[8],73 u/L
same,BLOOD UREA NITROGEN,[8],14.67 mg/dL
same,CARBON DIOXIDE,[8],34.67 mmol/L
same,CHLORIDE,[8],98 MEQ/L
same,CREATINE PHOSPHOKINASE,[8],305 u/L
same,CREATININE,[8],0.27 mg/dL
same,GLUCOSE,[8],134.67 mg/dL
same,LACTATE DEHYDROGENASE,[8],124.33 u/L
same,LIPASE,[8],7.67 u/L
same,PHOSPHORUS,[8],10.33 mg/dL
same,POTASSIUM,[8],5.91 MEQ/L
same,TOTAL BILIRUBIN,[8],0.2 mg/dL
same,TOTAL PROTEIN,[8],6.23 G/DL
same,URIC ACID,[8],0.6 mg/dL
